Where “and” joins values, the source holds several entries; their conditions need not be identical. Equal entries are not always repeated.
What was measured:
D770A PARP-1 = D770A PARP-1 (Homo sapiens, UniProt P09874, D770A); assay: catalytic activity of PARP-1 mutant expressed in HEK 293 cells, D770A; format: biochemical; conditions: 3 μM AZ0108
HEK 293 PARP-1 KO cells = assay: cell proliferation (MTT) assay in PARP-1 KO cells; format: cell-based, human; conditions: PARP-1 KO vs control HEK 293 cells, MTT 72 h
Text: Error bars represent SEM. […] Error bars represent SEM. […] Error bars represent SEM.

[1] = test system: Ewing sarcoma cell line EW-8; assay: ES-8 viability screen (CellTiter-Glo); format: cell-based
Experimental: Cell viability was measured using the CellTiter-Glo (Promega, G7573) assay and read using an Envision (PerkinElmer) plate reader. Compound source plates (96-well) were prepared by solubilizing each drug in DMSO to a maximum concentration of 1-50 mM, then arraying samples in 10-point dose-response with 3-fold dilution. Positive and negative controls (staurosporine at 10 mM and DMSO, respectively) were added to the source plates. Drug was transferred from the source plate to the assay plate using a Biomek FX (Beckman Coulter) liquid handler equipped with a pin tool which transferred ˜100 nl into a final volume of 100 μl, resulting in ˜1000-fold dilution. At least two biological replicates (assay performed on different day with same drug plate and independent cell preparation) were obtained for each drug. To analyze the assay, the relative light unit signal in each well was first log 2 transformed, then normalized by subtracting the mean of the negative controls wells on each plate.
(§1) FIGS. 6A-6E. […] 0.1 μM ad-olaparib (chemical structure indicated in panel a) was added to the cells for 1 hour before undergoing a UV treatment for 5 minutes in cold PBS. Cells were lysed and sonicated in PBS (1% Triton X-100+1% SDS), clicked with TAMRA-azide and run out on SDS-PAGE. The gel was imaged for TAMRA and probed for PARP-1 (Bethyl Laboratories), and alpha-tubulin (X). FIGS. 6B, 6D) Quantification of western blot images. TAMRA or ADPr values are normalized to PARP-1 within each replicate and plotted as percentage compared to DMSO. Error bars indicate SEM (n=3-4). Statistical significance of off-rate calculated via multiple t-tests (p<0.05). […] Cells were subsequently treated with PARGi (10 μM) for 30 minutes, lysed using RIPA buffer, run out on SDS-PAGE, and probed for ADPr (Cell Signaling) and PARP-1 (Bethyl Laboratories). FIG. 6E) ES-8 cells were treated with indicated concentration of inhibitors for 72 hours before measuring cell viability using the CellTiter-Glo kit (Promega G7573). IC50 values were calculated using R statistical software.

[2] = test system: pan-nuclear γH2AX in HEK 293T cells; assay: γH2AX immunofluorescence; format: cell-based, human
Experimental: HEK 293T or HEK 293 PARP-1 KO cells were seeded onto poly-d-lysine treated glass coverslips and treated with indicated concentrations of inhibitors for 18 hours. Cells were then washed with 1×PBS and fixed using 4% Sucrose/4% Paraformaldehyde in PBS for 20 minutes. After three washes in 1×PBS, cells were permeabilized in 0.3% Triton X-100 in PBS for 5 minutes followed by an additional three washes in 1×PBS. Coverslips were blocked in 3% BSA/0.1% Triton X-100 in PBS for 1 hour and then placed in primary anti-rabbit phosphoH2Ax antibody (1:200, Cell Signaling) overnight at 4° C. The next morning, cells were washed three times in 1×PBS and treated with blocking solution, 3% BSA/0.1% Triton X-100 in PBS, for 30 minutes before being placed in secondary anti-rabbit Alexa Fluor 647 (1:1000 Jackson Immuno) for 1 hour at RT. After three subsequent 1×PBS washes, coverslips were mounted using ProLong Gold antifade reagent with DAPI (Invitrogen). All immunofluorescence images were taken on a Zeiss ApoTome2 on Axiolmager and analyzed using Zeiss software. Mean intensity of the Alexa Fluor 647 signal was measured after imposing DAPI masks over the nucleus of each cell. All cells within a 20× image, was analyzed (˜3000 cells/condition).
Cell are stained for DAPI and γH2AX. Scale bar indicates 50 μm. FIG. 2B) Quantification of panel a. […] Error bars represent SEM. […] Error bars represent SEM. […] Error bars represent SEM.

HEK 293T cells = assay: neutral comet assay; format: cell-based, human; conditions: 1 μM overnight, compared to bleomycin
Text: Cells were washed with 1×PBS, trypsinized, resuspended in a 1000,000 cells/ml 1×PBS solution, and mixed with molten agarose 1:2. The agarose mixture was placed onto CometSlides and the comet assay was completed following the manufacturer instructions (Trevigen, 4250-050-K). DNA was stained using SYBR Green and slides were imaged on a Zeiss ApoTome2 on Axiolmager using a 10× objective (>100 cells/condition).

PARP-1 [3] = target: T1, PARP-1 (Homo sapiens, UniProt P09874); assay: in-cell competition labeling with ad-olaparib photoaffinity probe; format: cell-based
Experimental: Photocrosslinking in intact cells. HEK293 CRL and PARP-1 KO cells were grown in DMEM for 2 days in a 60 mm dish for 2 days to reach 80-90% confluency. […] Cells were then washed once with PBS, covered with PBS and irradiated for 5 min in the RPR-100 Photochemical Reactor (Rayonet) equipped with 350 nm lamps at 4° C. Cells were lysed on ice in 1% SDS, 1% Triton X-100 and EDTA-free protease inhibitor cocktail (Roche) in PBS for 10 min and then probe sonicated to shear the nuclear DNA. Protein concentration was determined with Bio-Rad Protein assay. The lysate was diluted in PBS to a final Click reaction concentration of 2 mg/mL.
Click Chemistry. Reaction was started by mixing 30 μL of each sample with 15 μL of PBS based 3× Click reaction mixture containing (final concentrations): 100 μM Tris[(1-benzyl-1H-1,2,3triazol-4-yl)methyl]amine (TBTA, Click Chemistry Tools), 1 mM CuSO4, 40 μM tetramethylrhodamine (TAMRA)-azide (Click Chemistry Tools), 1 mM Tris(2-carboxyethyl)phosphine hydrochloride (TCEP, Thermo Fisher) and 15% tert-Butyl alcohol, and let to procced for 1 h at RT while gently shaking. Reactions were stopped by adding 4× Laemmli sample buffer and boiling at 95° C. for 5 min.
In gel fluorescence, western blotting and quantification. Samples were loaded to 8 or 10% SDS-polyacrylamide gels and run until the dye front left the gel. First, in-gel fluorescence was detected with ChemiDoc XRS+ (Biorad) using Rhodamine filter and then the proteins were transferred on nitrocellulose membrane, the membrane was blocked and probed for PARP-1 (1:3000) and alpha-tubulin (1:1000). Both antibodies were from cell signaling. Band intensities we quantified with ImageJ.
as §1

PARP-1 [4] = target: T1, PARP-1; assay: in vitro fluorescence polarization DNA competition assay; conditions: 25 μM compound; PARP-1 40 nM; nicked dumbbell DNA probe 20 nM
Experimental: The full-length WT PARP-1 protein used in these assays was purified as described previously (30).
An unlabeled competitor was added and the decrease in fluorescence polarization was measured across time.

T1 sequence (P09874 whole entry): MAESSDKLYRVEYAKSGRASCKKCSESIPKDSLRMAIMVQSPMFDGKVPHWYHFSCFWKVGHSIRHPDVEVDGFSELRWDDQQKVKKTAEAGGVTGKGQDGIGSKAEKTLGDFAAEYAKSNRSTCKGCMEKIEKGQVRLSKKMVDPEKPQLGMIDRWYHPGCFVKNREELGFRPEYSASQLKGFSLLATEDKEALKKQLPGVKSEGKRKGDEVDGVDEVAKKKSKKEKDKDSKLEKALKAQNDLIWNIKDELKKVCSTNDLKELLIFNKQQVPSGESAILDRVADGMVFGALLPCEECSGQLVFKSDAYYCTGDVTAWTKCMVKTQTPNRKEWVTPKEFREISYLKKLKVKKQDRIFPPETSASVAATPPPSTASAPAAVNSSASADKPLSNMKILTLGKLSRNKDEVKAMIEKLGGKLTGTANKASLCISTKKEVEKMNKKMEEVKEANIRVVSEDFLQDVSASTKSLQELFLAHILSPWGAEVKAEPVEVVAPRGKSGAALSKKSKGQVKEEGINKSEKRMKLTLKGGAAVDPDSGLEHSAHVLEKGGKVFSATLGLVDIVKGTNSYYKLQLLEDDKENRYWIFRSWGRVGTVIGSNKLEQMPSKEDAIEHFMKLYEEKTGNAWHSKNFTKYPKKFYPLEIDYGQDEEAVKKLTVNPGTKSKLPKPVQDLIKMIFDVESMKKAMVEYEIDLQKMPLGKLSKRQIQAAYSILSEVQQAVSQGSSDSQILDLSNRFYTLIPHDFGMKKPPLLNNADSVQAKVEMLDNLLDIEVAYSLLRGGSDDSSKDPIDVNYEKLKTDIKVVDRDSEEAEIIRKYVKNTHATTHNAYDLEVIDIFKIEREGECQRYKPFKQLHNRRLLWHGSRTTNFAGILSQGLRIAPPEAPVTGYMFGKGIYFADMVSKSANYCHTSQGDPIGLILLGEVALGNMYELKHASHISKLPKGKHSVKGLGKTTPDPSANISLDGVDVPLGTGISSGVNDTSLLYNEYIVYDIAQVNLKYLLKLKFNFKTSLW
Chain of D770A PARP-1 (P09874 whole entry D770A): as the sequence (P09874 whole entry) above, with D770A counted along it

inhibition of D770A PARP-1 activity (D770A PARP-1): inhibited
EC50 ([1]; viability, 72 h): 20 nM and 20.9 nM
labeling of PARP-1 by ad-olaparib after pre-treatment (PARP-1 [3]; 10 μM inhibitor, 0.1 μM ad-olaparib): substantially blocked
recovery of labeling of PARP-1 by ad-olaparib after washout (PARP-1 [3]; washout (3 h)): more than 2 fold
exchange of the PARP-1:labled DNA complex with an unlabeled DNA competitor (PARP-1 [4]): substantially reduced
Substance: (S)-4-(difluoro(3-(6-methyl-3-(trifluoromethyl)-5,6,7,8-tetrahydro-[1,2,4]triazolo[4,3-a]pyrazine-7-carbonyl)phenyl)methyl)phthalazin-1(2H)-one [AZ0108]
increase in the EC50 value on cell growth by KO of PARP-1 (HEK 293 PARP-1 KO cells): 43 fold
Fold Difference to Pip6 ([1]; ratio of EC50 values): 86
pan-nuclear γH2AX induction ([2]; HEK 293T cells, 18 hours): dose-dependent increase
dependence of pan-nuclear γH2AX signal on PARP-1 ([2]; HEK293 control vs PARP-1 KO cells, 3 μM AZ0108): dependent on the presence of PARP-1
double-strand breaks (DSBs) (HEK 293T cells): only weakly generated DSBs
